Assay results published in the NIST ThermoML archive (doi:10.1021/je0499768).

Assay: molar heat capacity at constant pressure
Settings: 101.33 kPa

CCCO [propan-1-ol]
Settings | molar heat capacity at constant pressure [J/K/mol]
5.01 K, Crystal | 0.17
5.41 K, Crystal | 0.22
6.14 K, Crystal | 0.29
6.36 K, Crystal | 0.35
7.33 K, Crystal | 0.52
7.72 K, Crystal | 0.61
8.72 K, Crystal | 0.9
8.94 K, Crystal | 0.94
10.13 K, Crystal | 1.44
10.33 K, Crystal | 1.49
11.74 K, Crystal | 2.19
11.83 K, Crystal | 2.23
13.48 K, Crystal | 3.15
13.5 K, Crystal | 3.19
15.36 K, Crystal | 4.38
15.38 K, Crystal | 4.4
17.37 K, Crystal | 5.81
17.42 K, Crystal | 5.83
19.52 K, Crystal | 7.46
19.6 K, Crystal | 7.53
21.78 K, Crystal | 9.32
21.9 K, Crystal | 9.44
24.15 K, Crystal | 11.43
24.29 K, Crystal | 11.57
26.63 K, Crystal | 13.58
26.79 K, Crystal | 13.71
29.24 K, Crystal | 15.59
29.43 K, Crystal | 15.75
32.1 K, Crystal | 18.09
34.44 K, Crystal | 20.16
36.72 K, Crystal | 21.88
39.11 K, Crystal | 23.5
41.56 K, Crystal | 25.36
44.03 K, Crystal | 27.19
46.52 K, Crystal | 28.98
49.05 K, Crystal | 30.75
51.61 K, Crystal | 32.44
54.2 K, Crystal | 34.01
56.81 K, Crystal | 35.59
59.46 K, Crystal | 37.12
62.13 K, Crystal | 38.64
64.82 K, Crystal | 40.12
67.54 K, Crystal | 41.54
70.28 K, Crystal | 42.95
73.03 K, Crystal | 44.31
75.8 K, Crystal | 45.65
78.58 K, Crystal | 46.95
81.38 K, Crystal | 48.22
84.17 K, Crystal | 49.46
86.9 K, Crystal | 50.65
89.55 K, Crystal | 51.79
92.15 K, Crystal | 52.87
94.68 K, Crystal | 53.91
97.15 K, Crystal | 54.9
98.26 K, Crystal | 55.24
99.58 K, Crystal | 55.88
101.41 K, Crystal | 56.44
104.32 K, Crystal | 57.81
107.19 K, Crystal | 59.01
110.07 K, Crystal | 60.14
112.95 K, Crystal | 61.2
115.84 K, Crystal | 62.28
118.73 K, Crystal | 63.39
121.63 K, Crystal | 64.43
124.53 K, Crystal | 65.69
127.43 K, Crystal | 66.87
130.34 K, Crystal | 68.07
133.25 K, Crystal | 69.29
136.16 K, Crystal | 70.53
139.06 K, Crystal | 71.9
141.97 K, Crystal | 73.6
144.84 K, Crystal | 79.58
153 K, Liquid | 106.26
155.75 K, Liquid | 106.33
158.49 K, Liquid | 106.55
161.22 K, Liquid | 106.79
163.93 K, Liquid | 107.01
166.64 K, Liquid | 107.32
169.34 K, Liquid | 107.61
172.03 K, Liquid | 107.88
174.71 K, Liquid | 108.22
177.37 K, Liquid | 108.49
180.03 K, Liquid | 108.81
182.68 K, Liquid | 109.05
185.32 K, Liquid | 109.37
187.95 K, Liquid | 109.64
190.57 K, Liquid | 109.94
193.19 K, Liquid | 110.41
195.79 K, Liquid | 110.64
198.38 K, Liquid | 110.93
200.97 K, Liquid | 111.4
203.35 K, Liquid | 111.76
205.56 K, Liquid | 112.13
208.15 K, Liquid | 112.54
211.11 K, Liquid | 113.05
214.08 K, Liquid | 113.58
217.04 K, Liquid | 114.16
219.99 K, Liquid | 114.78
222.92 K, Liquid | 115.39
225.84 K, Liquid | 116.05
228.74 K, Liquid | 116.74
231.64 K, Liquid | 117.43
234.52 K, Liquid | 118.2
237.38 K, Liquid | 118.92
240.23 K, Liquid | 119.7
243.07 K, Liquid | 120.56
245.89 K, Liquid | 121.39
248.7 K, Liquid | 122.27
251.5 K, Liquid | 123.2
254.28 K, Liquid | 123.87
257.05 K, Liquid | 124.8
259.81 K, Liquid | 125.83
262.55 K, Liquid | 126.88
265.28 K, Liquid | 127.98
267.99 K, Liquid | 129.08
270.68 K, Liquid | 130.22
273.36 K, Liquid | 131.39
276.02 K, Liquid | 132.62
278.67 K, Liquid | 133.86
281.3 K, Liquid | 135.13
283.91 K, Liquid | 136.42
286.51 K, Liquid | 137.76
289.09 K, Liquid | 139.17
291.66 K, Liquid | 140.59
294.2 K, Liquid | 141.98
296.74 K, Liquid | 143.51
299.25 K, Liquid | 144.96
301.34 K, Liquid | 146.08
303.15 K, Liquid | 147.29
305.04 K, Liquid | 148.45
306.99 K, Liquid | 149.78
308.94 K, Liquid | 151.07
310.9 K, Liquid | 152.24
312.85 K, Liquid | 153.55
314.81 K, Liquid | 155.12
316.76 K, Liquid | 156.37
318.71 K, Liquid | 157.72
320.67 K, Liquid | 159.16
322.62 K, Liquid | 160.63
324.58 K, Liquid | 162.08
326.53 K, Liquid | 163.47
328.49 K, Liquid | 165.03
330.44 K, Liquid | 166.52
332.4 K, Liquid | 168.01
334.35 K, Liquid | 169.52
336.31 K, Liquid | 171.04
338.26 K, Liquid | 172.66
340.22 K, Liquid | 174.2
342.17 K, Liquid | 175.61
344.13 K, Liquid | 177.2
346.1 K, Liquid | 178.27
348.07 K, Liquid | 180.29
350.04 K, Liquid | 181.83
